According to ChEMBL document CHEMBL1136874, “Novel carbazole and acyl-indole antimitotics” (Bioorg Med Chem Lett, 2009):
Active and inactive are the calls of the source. The rule behind the calls is not given here.

Key:
[1] = Cell cycle arrest in human leukemic cells assessed as mitotic block by cytometry; assay type: functional, cell-based; conditions: Leukemia cell
[2] = Cell cycle arrest in human leukemic cells assessed as blockage in G2/M phase by high content cellular analysis; assay type: functional, cell-based; conditions: Leukemia cell
PC-3 = assay: Cytotoxicity against human PC3 cells; assay type: functional
HT-29 = assay: Cytotoxicity against human HT-29 cells; assay type: functional
[3] = Inhibition of tubulin polymerization
MCF7 = assay: Cytotoxicity against human MCF7 cells; assay type: functional
SW-620 = assay: Cytotoxicity against human SW620 cells; assay type: functional
Leukemia cell [4] = assay: Induction of apoptosis in human leukemic cells; assay type: functional, cell-based
[5] = Displacement of [3H]colchicine from tubulin
K562 = assay: Cytotoxicity against human K562 cells; assay type: functional
[6] = Displacement of labeled vinblastine from tubulin
Leukemia cell [7] = assay: Increase in phospho-Histone H3-ser10 level in human leukemic cells by flow cytometry; assay type: functional, cell-based

## COc1cc(C(N)=O)ccc1-n1c2c(c3ccccc31)C(=O)CCC2
[1]
  Activity: 0.42 µM

## NC(=O)c1ccc(-n2c3c(c4ccccc42)C(=O)CCC3)c(F)c1
[1]
  Activity: 5 µM

## NC(=O)c1ccc(-n2c3c(c4ccccc42)C(=O)CCC3)cc1NCc1ccccc1
[1]
  Activity: 6.2 µM

## NC(=O)Nc1ccc(-n2c3c(c4ccccc42)C(=O)CCC3)c(Cl)c1
[2]
  Activity: Active
PC-3
  Activity: 790 nM
HT-29
  Activity: 3.2 nM
[3]
  IC50: 1.64 µM
MCF7
  Activity: 0.87 nM
SW-620
  Activity: 15 nM
[1]
  Activity: 0.12 µM
Leukemia cell [4]
  Activity: Active
[5]
  IC50: 1.61 µM
K562
  Activity: 5.5 nM
[6]
  Activity: inactive
Leukemia cell [7]
  Activity: Active

## CN[C@H]1CCc2cc(OC)c(OC)c(OC)c2-c2ccc(OC)c(=O)cc21 [DEMECOLCINE]
PC-3
  Activity: 31 nM
HT-29
  Activity: 25 nM
MCF7
  Activity: 7.8 nM
SW-620
  Activity: 31 nM
[5]
  IC50: 3.58 µM
K562
  Activity: 16 nM

## NC(=O)c1ccc(-n2c3c(c4ccccc42)C(=O)CCC3)cc1
PC-3
  Activity: 7000 nM
HT-29
  Activity: 4500 nM
MCF7
  Activity: 2300 nM
SW-620
  Activity: 1200 nM
[1]
  Activity: > 10 µM
K562
  Activity: 2000 nM

## COc1cc(C(N)=O)ccc1-n1cc(C(C)=O)c2ccccc21
[1]
  Activity: 0.17 µM

## N#Cc1ccc(-n2c3c(c4ccccc42)C(=O)CCC3)c(C(F)(F)F)c1
[1]
  Activity: > 10 µM

## CC(=O)c1cn(-c2ccc(C(N)=O)cc2Cl)c2ccccc12
[1]
  Activity: 0.14 µM

## NC(=O)c1ccc(-n2c3c(c4ccccc42)C(=O)CCC3)c(Br)c1
[1]
  Activity: 0.15 µM

## NC(=O)c1ccc(-n2c3c(c4ccccc42)C(=O)CCC3)c(Cl)c1
PC-3
  Activity: 140 nM
HT-29
  Activity: 300 nM
MCF7
  Activity: 85 nM
SW-620
  Activity: 94 nM
[1]
  Activity: 0.42 µM
K562
  Activity: 210 nM

## COc1cc(-n2cc(C(C)=O)c3ccccc32)ccc1C(N)=O
[1]
  Activity: 0.1 µM

## N=C(NO)c1ccc(-n2c3c(c4ccccc42)C(=O)CCC3)c(Br)c1
[1]
  Activity: 2 µM

## CC(C)C(=O)c1cn(-c2ccc(C(N)=O)cc2Cl)c2ccccc12
[1]
  Activity: 5 µM

## CC(=O)c1cn(-c2ccc(C(N)=O)cc2Cl)c2cc(Cl)ccc12
PC-3
  Activity: 2.2 nM
HT-29
  Activity: 9.3 nM
MCF7
  Activity: 1.2 nM
SW-620
  Activity: 6.5 nM
[1]
  Activity: 0.21 µM
K562
  Activity: 0.085 nM

## COc1cc(-n2c3c(c4ccccc42)C(=O)CCC3)ccc1C(N)=O
[1]
  Activity: > 10 µM

## C=CCNc1cc(-n2c3c(c4ccccc42)C(=O)CCC3)ccc1C(N)=O
[1]
  Activity: 0.99 µM

## O=C(O)c1ccc(-n2c3c(c4ccccc42)C(=O)CCC3)c(Br)c1
[1]
  Activity: > 10 µM

## Cc1cc(C(N)=O)ccc1-n1c2c(c3ccccc31)C(=O)CCC2
[1]
  Activity: 0.96 µM

## CC[C@]1(O)C[C@@H]2CN(CCc3c([nH]c4ccccc34)[C@@](C(=O)OC)(c3cc4c(cc3OC)N(C)[C@H]3[C@@](O)(C(=O)OC)[C@H](OC(C)=O)[C@]5(CC)C=CCN6CC[C@]43[C@@H]65)C2)C1 [VINBLASTINE]
[3]
  IC50: 1.15 µM

## NC(=O)c1ccc(-n2c3c(c4ccccc42)C(=O)CCC3)c(-c2ccccc2)c1
[1]
  Activity: > 10 µM

## COc1cc2c(c(OC)c1OC)-c1ccc(OC)c(=O)cc1[C@@H](NC(C)=O)CC2
[1]
  Activity: 0.043 µM

## NC(=O)c1ccc(-n2c3c(c4ccccc42)C(=O)CCC3)c(N)c1
[1]
  Activity: 10 µM

## CC(=O)Nc1ccc(-n2c3c(c4ccccc42)C(=O)CCC3)c(Cl)c1
[1]
  Activity: 0.41 µM

## NC(=O)c1ccc(-n2c3c(c4ccccc42)C(=O)CCC3)c(C(F)(F)F)c1
[1]
  Activity: 0.24 µM

## NC(=O)c1ccc(-n2c3c(c4ccccc42)C(=O)CCC3)cc1Br
[1]
  Activity: > 10 µM
